Consider 37 compounds from BindingDB's records for patent WO2025049746 (Eikon Therapeutics, 2025).

For assay [1], the target named is Bifunctional 3'-5' exonuclease/ATP-dependent helicase WRN (Homo sapiens, UniProt Q14191). Put plainly: ADP-Glo Kinase Assay. The procedure:
ATPase activity was measured using the ADP-Glo Kinase Assay following the manufacturers recommended protocol.
In general terms: ADP-Glo first removes unused ATP, then detects ADP through luciferase.

Assay [2] concerns the target T1, Bifunctional 3'-5' exonuclease/ATP-dependent helicase WRN [480-1251] (UniProt Q14191).
T1 construct: 480-1251
Put plainly: Biochemical Activity Assays. The procedure: The pure fractions were pooled and desalted/buffer exchanged into storage buffer using a HiTrap desalting column. […] First, WRN alone was pre-incubated with DMSO or compound of interest for 15 minutes. To initiate the reaction, ATP, dsDNA substrate, and ssDNA competitor (ssDNA_comp: […]) were added and incubated at room temperature for 20 minutes at which point DNA unwinding activity was monitored by measuring Cy3 fluorescence. After obtaining the reading, the ATPase activity was measured using the ADP-Glo Kinase Assay following the manufacturers recommended protocol. […] Compounds were assayed in a 10-point dose response in duplicate at a 1% DMSO final assay concentration.

As usually defined, the IC50 is the concentration needed to halve the response being measured. High values mean weaker potency, low ones greater potency.

Sequence of Bifunctional 3'-5' exonuclease/ATP-dependent helicase WRN (Q14191 whole entry): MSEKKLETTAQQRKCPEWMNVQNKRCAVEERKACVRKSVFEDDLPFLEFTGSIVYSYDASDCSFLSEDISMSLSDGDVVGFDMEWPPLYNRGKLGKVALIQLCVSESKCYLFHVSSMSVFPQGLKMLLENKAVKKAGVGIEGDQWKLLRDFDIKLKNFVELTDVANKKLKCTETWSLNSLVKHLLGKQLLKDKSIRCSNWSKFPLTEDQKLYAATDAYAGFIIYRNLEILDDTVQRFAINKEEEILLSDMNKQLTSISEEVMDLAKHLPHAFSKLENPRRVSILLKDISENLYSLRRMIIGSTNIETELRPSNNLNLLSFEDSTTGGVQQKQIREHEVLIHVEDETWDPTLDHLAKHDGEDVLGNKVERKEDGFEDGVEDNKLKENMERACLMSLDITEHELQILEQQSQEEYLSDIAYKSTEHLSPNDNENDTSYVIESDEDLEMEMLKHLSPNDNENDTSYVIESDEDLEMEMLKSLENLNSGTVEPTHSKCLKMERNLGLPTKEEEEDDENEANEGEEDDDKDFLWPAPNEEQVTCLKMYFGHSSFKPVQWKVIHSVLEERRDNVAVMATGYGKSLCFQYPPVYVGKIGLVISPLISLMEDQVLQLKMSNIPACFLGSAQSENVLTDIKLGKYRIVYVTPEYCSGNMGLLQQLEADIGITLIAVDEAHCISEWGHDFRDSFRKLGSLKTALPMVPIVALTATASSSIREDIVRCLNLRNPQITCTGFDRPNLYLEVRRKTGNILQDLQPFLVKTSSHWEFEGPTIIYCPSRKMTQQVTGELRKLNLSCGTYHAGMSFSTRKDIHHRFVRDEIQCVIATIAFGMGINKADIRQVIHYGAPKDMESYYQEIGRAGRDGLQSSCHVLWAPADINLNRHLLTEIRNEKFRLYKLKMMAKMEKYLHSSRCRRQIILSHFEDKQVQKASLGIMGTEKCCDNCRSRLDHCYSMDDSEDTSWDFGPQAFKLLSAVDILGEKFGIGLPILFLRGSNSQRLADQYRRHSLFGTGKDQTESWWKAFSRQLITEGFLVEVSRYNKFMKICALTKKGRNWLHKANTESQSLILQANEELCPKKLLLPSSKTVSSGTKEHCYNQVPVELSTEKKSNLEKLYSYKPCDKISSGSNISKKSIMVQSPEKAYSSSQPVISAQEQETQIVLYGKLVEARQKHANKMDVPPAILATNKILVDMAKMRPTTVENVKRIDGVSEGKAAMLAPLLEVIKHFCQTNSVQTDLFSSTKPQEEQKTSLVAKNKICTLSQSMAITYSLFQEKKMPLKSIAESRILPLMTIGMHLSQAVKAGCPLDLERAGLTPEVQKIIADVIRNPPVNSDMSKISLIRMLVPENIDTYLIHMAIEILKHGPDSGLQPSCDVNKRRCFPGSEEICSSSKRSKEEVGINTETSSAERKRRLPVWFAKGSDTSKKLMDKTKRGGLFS
T1 sequence (Q14191 480-1251): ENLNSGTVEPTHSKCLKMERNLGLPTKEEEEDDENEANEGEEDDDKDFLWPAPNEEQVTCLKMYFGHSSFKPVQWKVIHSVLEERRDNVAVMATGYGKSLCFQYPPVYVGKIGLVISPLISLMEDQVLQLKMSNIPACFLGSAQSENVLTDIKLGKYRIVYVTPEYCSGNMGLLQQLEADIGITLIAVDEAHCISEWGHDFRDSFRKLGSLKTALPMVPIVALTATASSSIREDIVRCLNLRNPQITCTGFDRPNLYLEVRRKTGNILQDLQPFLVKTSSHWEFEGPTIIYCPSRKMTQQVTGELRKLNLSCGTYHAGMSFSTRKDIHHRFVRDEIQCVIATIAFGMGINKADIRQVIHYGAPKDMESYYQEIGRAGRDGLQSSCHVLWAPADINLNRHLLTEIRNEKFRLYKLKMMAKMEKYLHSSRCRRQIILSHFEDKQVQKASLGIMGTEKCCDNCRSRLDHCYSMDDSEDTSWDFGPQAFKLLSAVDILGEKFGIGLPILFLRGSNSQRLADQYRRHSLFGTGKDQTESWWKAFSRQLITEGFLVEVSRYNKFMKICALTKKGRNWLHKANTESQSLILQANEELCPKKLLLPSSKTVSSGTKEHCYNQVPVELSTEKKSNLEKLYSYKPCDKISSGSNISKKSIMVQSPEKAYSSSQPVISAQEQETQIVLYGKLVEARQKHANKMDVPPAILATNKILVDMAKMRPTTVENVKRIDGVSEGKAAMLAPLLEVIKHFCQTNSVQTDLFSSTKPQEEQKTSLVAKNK

On to `CCc1c(N2CCN(C(=O)c3ccccc3NS(C)(=O)=O)CC2)c(=O)n2nc(C3=CCOCC3)nc2n1CC(=O)Nc1ccc(C(F)(F)F)cc1Cl` [WO2025049746, Example 38], for which the IC50 was 70.8 nM in assay [1] and 60.3 nM in assay [2].

In the case of `CCc1c(N2CCN(C(=O)c3cc(N4CCN(C)CC4)nc(C)c3O)CC2)c(=O)n2nc(-c3ccc4c(c3)COC4)nc2n1CC(=O)Nc1ccc(C(F)(F)F)cc1Cl` [WO2025049746, Example 450], the IC50 in assay [1] was found to be 108 nM; in assay [2], 103 nM.

Turning to `CCc1c(N2CCN(C(=O)c3ncnc(C)c3O)CC2)c(=O)n2nc(-c3cc4c(cnn4C)cc3C)nc2n1CC(=O)Nc1ccc(C(F)(F)F)cc1Cl` [WO2025049746, Example 306], the IC50 in assay [1] and in assay [2] was 29700 nM throughout.

As to `CCc1c(N2CCN(C(=O)c3cc(C(C)C)c(O)cc3O)CC2)c(=O)n2nc(-c3ccc4c(c3)COC4)nc2n1CC(=O)Nc1ccc(C(F)(F)F)cc1Cl` [WO2025049746, Example 408], the IC50 in assay [1] is 1260 nM; in assay [2], 1200 nM.

Take `CCc1c(N2CCN(C(=O)c3ncnc(C)c3O)CC2)c(=O)n2nc(-c3ccc4c(c3)COC43COC3)nc2n1CC(=O)Nc1ccc(C(F)(F)F)cc1Cl` [WO2025049746, Example 278]: the results for the IC50 in assay [1] and in assay [2] were 31 nM and 36 nM, respectively.

For `Cc1ncnc(C(=O)N2CCN(c3c(OC(F)F)n(CC(=O)Nc4ccc(C(F)(F)F)cc4Cl)c4nc(-c5ccc6c(c5)COC6)nn4c3=O)CC2)c1O` [WO2025049746, Example 375], the IC50 in assay [1] is 1140 nM; in assay [2] it was 4900 nM.

Regarding `CCc1c(N2CCN(C(=O)c3ncnc(C)c3O)CC2)c(=O)n2nc(-c3ccc4scnc4c3)nc2n1CC(=O)Nc1ccc(C(F)(F)F)cc1Cl` [WO2025049746, Example 288], the IC50 in assay [1] worked out at 40 nM; in assay [2], 43 nM.

For the compound `CCc1c(N2CCN(C(=O)c3ncnc(C)c3O)CC2)c(=O)n2nc(-c3ccc4nn(C)cc4c3)nc2n1CC(=O)Nc1ccc(C(F)(F)F)cc1Cl` [WO2025049746, Example 235], the IC50 in assay [1] was determined as 23 nM; in assay [2], 26 nM.

Consider `CCc1c(N2CCN(C(=O)c3ncnc(C)c3O)CC2)c(=O)n2nc(-c3ccc4c(c3)COC4)nc2n1CC(=O)Nc1c(Cl)cc(C(F)(F)F)c2c1OCC2` [WO2025049746, Example 442], for which the IC50 in assay [1] was determined as 54 nM; in assay [2] it was 67 nM.

`CCc1c(N2CCN(C(=O)c3ncnc(C)c3O)CC2)c(=O)n2nc(-c3ccc(S(=O)(=O)N4CCC4)cc3)nc2n1CC(=O)Nc1ccc(C(F)(F)F)cc1Cl` [WO2025049746, Example 270]: the IC50 in assay [1] was 19 nM; in assay [2] it was 18 nM.

For the compound `CCc1c(N2CCN(C(=O)c3ncnc(C)c3O)CC2)c(=O)n2nc(C3=CCOCC3)nc2n1CC(=O)NC12CC(c3ccc(F)cc3)(C1)C2` [WO2025049746, Example 353], the IC50 in assay [1] amounted to 6860 nM; in assay [2] it was 29700 nM.

For `CCc1c(N2CCN(C(=O)c3ncnc(C)c3O)[C@H](C)C2)c(=O)n2nc(-c3ccc4c(c3)COC4(C)C)nc2n1CC(=O)Nc1ccc(C(F)(F)F)cc1Cl` [WO2025049746, Example 457], the IC50 in assay [1] came to 39 nM; in assay [2], 40 nM.

Turning to `CCc1c(N2CCN(C(=O)c3ncnc(C)c3O)CC2)c(=O)n2nc(-c3cc4cnn(C)c4cc3C)nc2n1CC(=O)Nc1ccc(C(F)(F)F)cc1Cl` [WO2025049746, Example 311], the values for the concentration for half-maximal inhibition (IC50) in assay [1] and in assay [2] were 50 nM and 47 nM, respectively.

On to `CCc1c(N2CCN(C(=O)c3ncnc(C)c3O)CC2)c(=O)n2nc(-c3ccc4c(c3)CCC4OC(F)F)nc2n1CC(=O)Nc1ccc(C(F)(F)F)cc1Cl` (centres undefined) [WO2025049746, Example 227], for which the values for the IC50 in assay [1] and in assay [2] were 95 nM and 89 nM, respectively.

For `CCc1c(N2CCN(C(=O)c3ncnc(C)c3O)CC2)c(=O)n2nc(-c3cc(C)c4c(c3)COC4(C)C)nc2n1CC(=O)Nc1ccc(C(F)(F)F)cc1Cl` [WO2025049746, Example 221], the IC50 in assay [1] is 47 nM; in assay [2], 56 nM.

In the case of `CCc1c(N2CCN(C(=O)c3nsc(N4CCOCC4)c3O)CC2)c(=O)n2nc(-c3ccc4c(c3)COC4)nc2n1CC(=O)Nc1ccc(C(F)(F)F)cc1Cl` [WO2025049746, Example 445], the IC50 in assay [1] was determined as 72 nM; in assay [2] it was 70 nM.

For `CCc1c(N2CCN(C(=O)c3ncnc(C)c3O)CC2)c(=O)n2nc(-c3ccc4c(c3)COC4)nc2n1CC(=O)Nc1ccc(Cl)c(OC(F)F)c1Cl` [WO2025049746, Example 407], the IC50 in assay [1] came to 30 nM; in assay [2], 25 nM.

As for `CCc1c(N2CCN(C(=O)c3ccccc3NC(=O)c3ccn[nH]3)CC2)c(=O)n2nc(C3=CCOCC3)nc2n1CC(=O)Nc1ccc(C(F)(F)F)cc1Cl` [WO2025049746, Example 40], the values for the IC50 in assay [1] and in assay [2] were 125 nM and 62.2 nM, respectively.

As to `CCc1c(N2CCN(C(=O)c3ncnc(C)c3O)CC2)c(=O)n2nc(-c3cc(F)c4c(c3)COC4)nc2n1CC(=O)Nc1ccc(C(F)(F)F)cc1Cl` [WO2025049746, Example 202], the IC50 in assay [1] stood at 40 nM; in assay [2], 32 nM.

As to `CCc1c(N2CCN(C(=O)c3ncnc(C)c3O)CC2)c(=O)n2nc(-c3ccc4c(c3)N(C)C(=O)CO4)nc2n1CC(=O)Nc1ccc(C(F)(F)F)cc1Cl` [WO2025049746, Example 198], the values for the IC50 in assay [1] and in assay [2] were 48 nM and 33 nM, respectively.

Take `CCc1c(N2CCN(C(=O)c3ncnc(C)c3O)CC2)c(=O)n2nc(-c3ccn4nc(C)cc4c3)nc2n1CC(=O)Nc1ccc(C(F)(F)F)cc1Cl` [WO2025049746, Example 247]: the IC50 in assay [1] was found to be 26 nM; in assay [2], 27 nM.

As for `CCc1c(N2CCN(C(=O)c3ncnc(C)c3O)CC2)c(=O)n2nc(N3CC(OC)C3)nc2n1CC(=O)Nc1ccc(C(F)(F)F)cc1Cl` [WO2025049746, Example 27], the figures for the IC50 in assay [1] and in assay [2] were 86.3 nM and 56 nM, respectively.

With `CCc1c(N2CCN(C(=O)c3ncnc(C)c3O)CC2)c(=O)n2nc(-c3cnn4c3COCC4)nc2n1CC(=O)Nc1ccc(C(F)(F)F)cc1Cl` [WO2025049746, Example 20], the results for the IC50 in assay [1] and in assay [2] were 88.6 nM and 53.6 nM, respectively.

For the compound `CCc1c(N2CCN(C(=O)c3ncnc(C)c3O)CC2)c(=O)n2nc(-c3ccc4c(c3)COC4)nc2n1CC(=O)Nc1ccc(C(F)(F)F)c2c1CC2` [WO2025049746, Example 376], the IC50 turned out to be 36 nM in assay [1] and 28 nM in assay [2].

As for `CCc1c(N2CCN(C(=O)c3ncnc(C)c3O)CC2)c(=O)n2nc(-c3cccc4c3OCCO4)nc2n1CC(=O)Nc1ccc(SC(F)(F)F)cc1` [WO2025049746, Example 411], the IC50 in assay [1] was found to be 420 nM; in assay [2], 232 nM.

For `CCc1c(N2CCN(C(=O)C(F)(F)C3(O)CCC3)CC2)c(=O)n2nc(C3=CCOCC3)nc2n1CC(=O)Nc1ccc(C(F)(F)F)cc1Cl` [WO2025049746, Example 57], the IC50 stood at 827 nM in assay [1] and 486 nM in assay [2].

As for `CCc1c(N2CCN(C(=O)c3ncnc(C)c3O)CC2)c(=O)n2nc(-c3ccc4nc(C)oc4c3)nc2n1CC(=O)Nc1ccc(C(F)(F)F)cc1Cl` [WO2025049746, Example 237], the IC50 in assay [1] came out at 82 nM; in assay [2], 84 nM.

For `CCc1c(N2CCN(C(=O)c3c(C#N)cnc(C)c3O)CC2)c(=O)n2nc(-c3ccc4c(c3)COC4)nc2n1CC(=O)Nc1ccc(C(F)(F)F)cc1Cl` [WO2025049746, Example 449], the IC50 in assay [1] amounted to 40 nM; in assay [2], 45 nM.

On to `CCc1c(N2CCN(C(=O)c3ncnc(C)c3O)CC2)c(=O)n2nc(-c3cc4c(cc3F)[C@H](OC)CC4)nc2n1CC(=O)Nc1ccc(C(F)(F)F)cc1Cl` [WO2025049746, Example 245], for which the IC50 in assay [1] turned out to be 26 nM; in assay [2], 28 nM.

In the case of `CCc1c(N2CCN(C(=O)c3ccccc3NS(=O)(=O)C3CC3)CC2)c(=O)n2nc(N(C)C)nc2n1CC(=O)Nc1ccc(C(F)(F)F)c2c1CC2` [WO2025049746, Example 105], the figures for the IC50 in assay [1] and in assay [2] were 281 nM and 264 nM, respectively.

For the compound `CCc1c(N2CCN(C(C)=O)CC2)c(=O)n2nc(C3=CCOCC3)nc2n1CC(=O)Nc1ccc(C(F)(F)F)cc1Cl` [WO2025049746, Example 52], the figures for the half-inhibitory concentration (IC50) in assay [1] and in assay [2] were 39.4 nM and 28.6 nM, respectively.

In the case of `CCc1c(N2CCN(C(=O)c3ncnc(C)c3O)CC2)c(=O)n2nc(-c3ccc4c(c3)C(F)(F)CC4)nc2n1CC(=O)Nc1ccc(C(F)(F)F)cc1Cl` [WO2025049746, Example 178], the IC50 in assay [1] is 42 nM; in assay [2], 39 nM.

As to `CCc1c(N2CCN(C(=O)c3ncnc(C)c3O)CC2)c(=O)n2nc(-c3ccc4c(c3C)CCO4)nc2n1CC(=O)Nc1ccc(C(F)(F)F)cc1Cl` [WO2025049746, Example 238], the values for the IC50 in assay [1] and in assay [2] were 30 nM and 33 nM, respectively.

Turning to `CCc1c(N2CCN(C(=O)c3ccccc3NS(=O)(=O)C3CC3)CC2)c(=O)n2nc(-c3ccc4c(c3)OCO4)nc2n1CC(=O)Nc1ccc(C(F)(F)F)c2c1CC2` [WO2025049746, Example 111], the values for the IC50 in assay [1] and in assay [2] were 308 nM and 251 nM, respectively.

Consider `CCc1c(N2CCN(C(=O)c3ncnc(C)c3O)CC2)c(=O)n2nc(-c3ccc4n[nH]cc4c3)nc2n1CC(=O)Nc1ccc(C(F)(F)F)cc1Cl` [WO2025049746, Example 258], for which the results for the concentration for half-maximal inhibition (IC50) in assay [1] and in assay [2] were 16 nM and 15 nM, respectively.

Regarding `CCc1c(N2CCN(C(=O)c3ncnc(C)c3O)CC2)c(=O)n2nc(-c3ccc4nscc4c3)nc2n1CC(=O)Nc1ccc(C(F)(F)F)cc1Cl` [WO2025049746, Example 266], the IC50 in assay [1] and in assay [2] was 22 nM each time.

For the compound `CCc1c(N2CCN(C(=O)c3ncnc(C)c3O)CC2)c(=O)n2nc(-c3ccc4c(c3)C[C@H](OC)C4)nc2n1CC(=O)Nc1ccc(C(F)(F)F)cc1Cl` [WO2025049746, Example 181], the IC50 in assay [1] was determined as 38 nM; in assay [2], 33 nM.
